Experimental data from PubChem BioAssay (NCI).
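Following 48 hours of exposure in 96-well plates, responses at five concentrations were used to interpolate endpoints linearly. GI50 = concentration required for 50% inhibition of growth. TGI marks complete inhibition of growth.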 Where a SMILES comes first, the peptide text is derived from it. [ ]: non-standard residue; d: D form. The star is where a group is joined. Lauroyl = CCCCCCCCCCCC(=O)*; Aib = CC(C)(N)C(=O)O; βAla = NCCC(=O)O

Each compound was assayed on MDA-MB-468 breast (assay: NCI-60 cell line screen, 48 h).

Row | Compound | GI50 [nM] | TGI [µM]
1 | CC1(C)N=C(N)N=C(N)N1c1ccc(CCCCc2ccc(Cl)cc2S(=O)(=O)F)c(Cl)c1 | 569 | 5.87
2 | Cn1c(I)c(C#CCO[Si](C)(C)C(C)(C)C)c(=O)[nH]c1=O | 1880 | 4.33
3 | COc1cc(OCc2cccc(-c3ccc(C(O)c4nccs4)cc3)c2C)cc(OC)c1C=O (stereo not drawn) | 267 | 2.51
4 | COc1cccc(F)c1C(=O)c1cnc(NC2CCN(S(C)(=O)=O)CC2)nc1N | 3750 | 9.91
5 | O=C(Nc1ccc(Br)cc1F)c1cc(F)ccc1O | 1130 | 4.92
6 | Nc1nn2cc(F)cnc2c1C(=O)Nc1cncc(F)c1N1CCC(C(=O)N2CCN(C3COC3)CC2)CC1 | 165 | 0.682
7 | CCCn1cnc2c(c1=N)C(c1ccc(Cl)cc1)c1sc3c(CC)cccc3c1O2 (stereo not drawn) | 508 | 4.14
8 | C#CCOc1cccc(-c2ncc3cc(NC(=O)CCl)ccc3n2)c1 | 1740 | 3.55
9 | CN1CCN(C2CCN(C(=O)Nc3cc(Oc4ccc(NC(=O)C5(C(=O)Nc6ccc(F)cc6)CC5)c(F)c4)ccn3)CC2)CC1 | 1030 | > 2.41
10 | COc1ccc(OC)c2c1[nH]c(=O)c1c3ccccc3cn21 | 1080 | 2.55
11 | COc1ccc(/C=C\[N+](=O)[O-])cc1OC | 3050 | 11.3
12 | CC/C=C\C[C@H](O)C/C=C1/C(=O)C(Cl)=C[C@@H]1C/C=C\CCCC(=O)OC | 554 | 3.06
13 | Oc1ccc(Nc2ncnc3c2sc2ncccc23)cc1 | 75.1 | 21
14 | Cc1cc(C)c2c(n1)sc1c(Nc3ccc(Cl)cc3)ncnc12 | 21.8 | 27
15 | Cn1cc(C2=C(c3ccc(N)cc3)C(=O)NC2=O)c2ccccc21 | 7840 | > 25
16 | COc1ccc(Sc2[nH]c(C(C)=O)c3ccccc23)cc1 | 3890 | 41.4
17 | COC(=O)C[C@](O)(CCCC(C)(C)O)C(=O)O[C@@H]1C(OC)=C[C@]23CCCN2CCc2cc4c(cc2[C@H]13)OCO4 | 10.2 | 0.0367
18 | CC1(C)[C@@H](O)CC[C@]2(C)[C@H]3CC[C@@H]4[C@H]5[C@H](C(=O)/C=C\c6ccccn6)CC[C@]5(O)CC[C@@]4(C)[C@]3(C)CC[C@@H]12 | 1400 | 3.96
19 | CCN(CC)CCC(CNc1ccnc2cc(Cl)ccc12)c1ccc(Cl)cc1 (stereo not drawn) | 413 | 1.52
20 | CC(=O)Nc1ccc(S(=O)(=O)N2C(=O)CCC2C(=O)Nc2ccc(Br)cc2)cc1 (stereo not drawn) | 1020 | 5.55
21 | COC(=O)c1ccc2c(c1)nc(NC(=O)c1ccccc1)n2CCCc1ccccc1 | 3050 | > 80
22 | NC(=S)N/N=C/C(=O)O | 23900 | > 100
23 | C[N+](C)(C)CC1CCCc2ccccc2C1=O (stereo not drawn) | 1910 | 3.76
24 | Nc1ccc([N+](=O)[O-])cc1N=C/C=C/c1ccccc1 | 4680 | 43
25 | CNCc1ccccc1-c1csc([C@@H](C)Nc2nc(C)nc3cc(OC)c(OC)cc23)c1 | 1100 | 2.59
26 | CCCCCCCCCCCC(=O)NC(C)(C)C(=O)N1CCCC1C(=O)NC(C)(C)C(=O)NC(C)(C)C(=O)N1CCCC1C(=O)NC(C)(C)C(=O)NC(C)(C)C(=O)N1CCCC1C(=O)NC(C)C(=O)NCCC(=O)NC(C)C(=O)NC(C)(C)C(=O)NC(C)(C)C(=O)NC(C)(C)C(=O)NCCC(=O)NC(C)(C)C(=O)NC(C)(C)C(=O)NC(C)(C)C(=O)NC(C)C(=O)NCCC(=O)O (stereo not drawn) (Lauroyl-[Aib]P[Aib][Aib]P[Aib][Aib]PA[βAla]A[Aib][Aib][Aib][βAla][Aib][Aib][Aib]A[βAla]-OH; configuration not given here) | 328 | 0.739
27 | Cc1ccc(SC2c3ccc(C)cc3Oc3nc(N)c(C#N)c(N)c32)cc1 (stereo not drawn) | 1770 | 3.74
28 | O=C(O)COc1ccc2c(=O)c3sc4c(=O)c5ccccc5c(=O)c4c3c(=O)c2c1 | 14900 | 35.4
29 | O=C(Nc1ccc(Nc2ccncc2)cc1)c1ccc([N+](=O)[O-])cc1 | 1750 | 5.2
